The source made the active and inactive calls. The rule behind the calls is not given here. Peptide text beside a SMILES is read from it. * marks the point of attachment. Cbz = O=C(OCc1ccccc1)*
Columns and labels:
MOLM-14 [1] = experiment: cells; conditions: Homo sapiens, MOLM-14, 96 h
ML-2 [2] = experiment: Potency index, ratio of MI-1061 IC50 to test compound IC50 for inhibition of cell growth in human ML-2 cells harbouring wild type p53 incubated for 4 days by lactate dehydrogenase based WST-8 assay; type: functional; conditions: time 4 day
RS4-11 [3] = experiment: Induction of apoptosis in human RS4-11 cells at 0.001 to 1 uM incubated for 24 hrs by Annexin-V/PI staining based flow cytometric analysis relative to MI-1061; type: functional; conditions: dose 0.001-1 µM
[4] = Toxicity in mouse xenografted with human RS4-11 cells assessed as signs of toxicity at 10 to 25 mg/kg, iv administered three times a week; type: organism-based; conditions: in vivo, 168 h, dose 10-25 mg/kg, time 1 weeks
[5] = Toxicity in mouse xenografted with human RS4-11 cells assessed as weight loss at 10 to 25 mg/kg, iv administered three times a week; type: organism-based; conditions: in vivo, 168 h, dose 10-25 mg/kg, time 1 weeks
RS4-11 [6] = experiment: Antitumor activity against human RS4-11 cells xenografted in mouse assessed as reduction in tumor growth at 25 mg/kg, iv administered for a week; type: functional, organism-based; conditions: time 1.0 weeks
RS4-11 [7] = experiment: Antitumor activity against human RS4-11 cells xenografted in mouse assessed as reduction in tumor growth at 25 mg/kg, iv administered three times a week relative to control; type: functional; set-up: scale not given: the % may be the effect or the level left; conditions: time 1 weeks
MV4-11 [8] = experiment: Inhibition of cell growth in human MV4-11 cells incubated for 4 days in the presence of lenalidomide by Lactate dehydrogenase based WST-8 assay; type: functional; conditions: time 4.0 day
[9] = Toxicity in mouse xenografted with human RS4-11 cells assessed as signs of toxicity at 50 mg/kg, administered once a week for 3 weeks; type: organism-based; conditions: in vivo, 504 h
RS4-11 [10] = experiment: Inhibition of cell growth in human RS4-11 cells incubated for 4 days in the presence of lenalidomide by Lactate dehydrogenase based WST-8 assay; type: functional; conditions: time 4.0 day
RS4-11 [11] = experiment: Antitumor activity against human RS4-11 cells xenografted in mouse assessed as tumor regression at 50 mg/kg, administered every other day for 3 weeks; type: functional, organism-based
[12] = Toxicity in mouse xenografted with human RS4-11 cells assessed as signs of toxicity at 25 mg/kg, iv administered for one week; type: organism-based; conditions: in vivo, 168 h, time 1 weeks
MOLM-14 [13] = experiment: Potency index, ratio of MI-1061 IC50 to test compound IC50 for inhibition of cell growth in human MOLM-14 cells harbouring wild type p53 incubated for 4 days by lactate dehydrogenase based WST-8 assay; type: functional; conditions: time 4 day
[14] = molecular target: T1, Protein cereblon/E3 ubiquitin-protein ligase Mdm2 (Homo sapiens) (UniProt Q00987+Q96SW2); experiment: PROTAC activity at CRBN/MDM2 in human MV4-11 cells assessed as upregulation of MDM2 mRNA expression at 0.1 to 0.3 uM incubated for 6 hrs by qRT-PCR analysis; type: cell-based; conditions: dose 0.1-0.3 µM
T1 sequence (Q00987 whole entry, looked up): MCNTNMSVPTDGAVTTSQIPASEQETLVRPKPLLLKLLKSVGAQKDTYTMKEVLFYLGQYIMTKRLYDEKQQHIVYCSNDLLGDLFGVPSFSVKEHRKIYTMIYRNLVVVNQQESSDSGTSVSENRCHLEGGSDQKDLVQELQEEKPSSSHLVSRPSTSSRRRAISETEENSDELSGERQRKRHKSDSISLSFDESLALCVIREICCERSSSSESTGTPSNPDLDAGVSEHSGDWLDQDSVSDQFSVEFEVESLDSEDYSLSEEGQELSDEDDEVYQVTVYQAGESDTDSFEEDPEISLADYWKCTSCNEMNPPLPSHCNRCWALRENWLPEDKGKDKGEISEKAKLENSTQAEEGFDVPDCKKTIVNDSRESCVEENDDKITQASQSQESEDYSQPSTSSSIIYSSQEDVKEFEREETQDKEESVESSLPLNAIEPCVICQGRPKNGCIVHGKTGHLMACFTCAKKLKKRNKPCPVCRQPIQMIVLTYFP
T1 sequence (Q96SW2 whole entry, looked up): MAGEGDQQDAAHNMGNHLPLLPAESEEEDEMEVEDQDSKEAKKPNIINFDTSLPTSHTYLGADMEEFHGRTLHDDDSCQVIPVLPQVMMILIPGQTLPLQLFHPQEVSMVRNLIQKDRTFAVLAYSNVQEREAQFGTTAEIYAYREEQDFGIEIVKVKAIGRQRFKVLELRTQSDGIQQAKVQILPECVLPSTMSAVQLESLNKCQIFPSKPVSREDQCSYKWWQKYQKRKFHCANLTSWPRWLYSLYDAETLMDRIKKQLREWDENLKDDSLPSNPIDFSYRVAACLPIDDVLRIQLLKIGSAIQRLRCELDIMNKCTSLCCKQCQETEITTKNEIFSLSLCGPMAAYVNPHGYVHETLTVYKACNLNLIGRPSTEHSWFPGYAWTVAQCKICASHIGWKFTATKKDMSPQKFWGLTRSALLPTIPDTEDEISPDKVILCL

RS4-11 [15] = experiment: Induction of apoptosis in human RS4-11 cells incubated for 24 hrs by Annexin-V/PI staining based flow cytometric analysis; type: functional, cell-based
RS4-11 [16] = experiment: cells; conditions: Homo sapiens, RS4-11, 96 h
MOLM-13 [17] = experiment: cells; conditions: Homo sapiens, MOLM-13, 96 h
[18] = Toxicity in mouse xenografted with human RS4-11 cells assessed as weight loss at 25 mg/kg, iv administered for one week; type: organism-based; conditions: in vivo, 168 h, time 1 weeks
RS4-11 [19] = experiment: Potency index, ratio of MI-1061 IC50 to test compound IC50 for inhibition of cell growth in human RS4-11 cells incubated for 4 days by lactate dehydrogenase based WST-8 assay; type: functional; conditions: time 4 day
[20] = Toxicity in mouse xenografted with human RS4-11 cells assessed as weight loss at 50 mg/kg, administered once a week for 3 weeks; type: organism-based; conditions: in vivo, 504 h
RS4-11 [21] = experiment: Antitumor activity against human RS4-11 cells xenografted in mouse assessed as reduction in tumor growth at 10 mg/kg, iv administered three times a week; type: functional, organism-based; conditions: time 1.0 weeks
OCI-AML-5 [22] = experiment: Potency index, ratio of MI-1061 IC50 to test compound IC50 for inhibition of cell growth in human OCI-AML5 cells harbouring wild type p53 incubated for 4 days by lactate dehydrogenase based WST-8 assay; type: functional; conditions: time 4 day
[23] = molecular target: T1, Protein cereblon/E3 ubiquitin-protein ligase Mdm2 (Homo sapiens); experiment: PROTAC activity at CRBN/MDM2 in human MV4-11 cells assessed as upregulation of p21 mRNA expression at 0.1 to 0.3 uM incubated for 6 hrs by qRT-PCR analysis; type: cell-based; conditions: dose 0.1-0.3 µM
KG-1 = experiment: cells; conditions: Homo sapiens, KG-1, 96 h
[24] = molecular target: T1, Protein cereblon/E3 ubiquitin-protein ligase Mdm2 (Homo sapiens); experiment: PROTAC activity at CRBN/MDM2 in human MV4-11 cells assessed as upregulation of p53 mRNA expression at 0.1 to 0.3 uM incubated for 6 hrs by qRT-PCR analysis; type: cell-based; conditions: dose 0.1-0.3 µM
ML-2 [25] = experiment: cells; conditions: Homo sapiens, ML-2, 96 h
OCI-AML-5 [26] = experiment: cells; conditions: Homo sapiens, OCI-AML-5, 96 h
SIG-M5 [27] = experiment: Potency index, ratio of MI-1061 IC50 to test compound IC50 for inhibition of cell growth in human SIG-M5 cells harbouring wild type p53 incubated for 4 days by lactate dehydrogenase based WST-8 assay; type: functional; conditions: time 4 day
SIG-M5 [28] = experiment: cells; conditions: Homo sapiens, SIG-M5, 96 h
[29] = molecular target: T1, Protein cereblon/E3 ubiquitin-protein ligase Mdm2 (Homo sapiens); experiment: PROTAC activity at CRBN/MDM2 in human MV4-11 cells assessed as upregulation of PUMA mRNA expression at 0.1 to 0.3 uM incubated for 6 hrs by qRT-PCR analysis; type: cell-based; conditions: dose 0.1-0.3 µM
MV4-11 [30] = experiment: Potency index, ratio of MI-1061 IC50 to test compound IC50 for inhibition of cell growth in human MV4-11 cells incubated for 4 days by lactate dehydrogenase based WST-8 assay; type: functional; conditions: time 4 day
[31] = molecular target: T1, Protein cereblon/E3 ubiquitin-protein ligase Mdm2 (Homo sapiens); experiment: PROTAC activity at CRBN/MDM2 in human MV4-11 cells assessed as upregulation of TP53 mRNA expression at 0.1 to 0.3 uM incubated for 6 hrs by qRT-PCR analysis; type: cell-based; conditions: dose 0.1-0.3 µM
[32] = Toxicity in mouse xenografted with human RS4-11 cells assessed as signs o toxicity at 50 mg/kg, administered every other day for 3 weeks; type: organism-based; conditions: in vivo, 504 h
MONO-MAC-6 = experiment: cells; conditions: Homo sapiens, MONO-MAC-6, 96 h
RS4-11 [33] = experiment: Antitumor activity against human […] cells xenografted in mouse assessed as tumor regression at 25 mg/kg, administered daily 5 days a week for 2 weeks; type: functional, organism-based
[34] = Toxicity in mouse xenografted with human RS4-11 cells assessed as weight loss at 50 mg/kg, administered every other day for 3 weeks; type: organism-based; conditions: in vivo, 504 h
[35] = molecular target: T1, Protein cereblon/E3 ubiquitin-protein ligase Mdm2 (Homo sapiens); experiment: PROTAC activity at CRBN/MDM2 in human RS4-11 cells harbouring wildtype p53 assessed as upregulation of TP53 mRNA expression at 0.03 to 0.1 uM incubated for 6 hrs by qRT-PCR analysis; type: cell-based; conditions: dose 0.03-0.1 µM
MOLM-13 [36] = experiment: Potency index, ratio of MI-1061 IC50 to test compound IC50 for inhibition of cell growth in human MOLM-13 cells harbouring wild type p53 incubated for 4 days by lactate dehydrogenase based WST-8 assay; type: functional; conditions: time 4 day
RS4-11 [37] = experiment: Antitumor activity against human RS4-11 cells xenografted in mouse assessed as inhibition of tumor growth at 50 mg/kg, administered once a week for 3 weeks; type: functional, organism-based
[38] = molecular target: T2, E3 ubiquitin-protein ligase Mdm2 (Homo sapiens, UniProt Q00987); experiment: Inhibition of MDM2 in human RS4-11 cells harbouring wildtype p53 assessed as fold change in p53 accumulation at 3 uM incubated for 4 hrs by Western blot analysis (reference value: 1); type: cell-based
T2 sequence (Q00987 whole entry, looked up): as the sequence (Q00987 whole entry, looked up) above

[39] = molecular target: T2, E3 ubiquitin-protein ligase Mdm2; experiment: Inhibition of MDM2 in human RS4-11 cells harbouring wildtype p53 assessed as fold change in MDM2 level at 3 uM incubate for 4 hrs by Western blot analysis (reference value: […]); type: cell-based
RS4-11 [40] = experiment: Potency index, ratio of MI-1242 IC50 to test compound IC50 for inhibition of cell growth in human RS4-11 cells incubated for 4 days by lactate dehydrogenase based WST-8 assay; type: functional; conditions: time 4 day
[41] = molecular target: T2, E3 ubiquitin-protein ligase Mdm2; experiment: Inhibition of MDM2 in human RS4-11 cells harbouring wildtype p53 assessed as fold change in p53 accumulation at 10 uM incubated for 4 hrs by Western blot analysis (reference value: […]); type: cell-based
[42] = molecular target: T2, E3 ubiquitin-protein ligase Mdm2; experiment: Inhibition of MDM2 in human RS4-11 cells harbouring wildtype p53 assessed as fold change in MDM2 level at 10 uM incubate for 4 hrs by Western blot analysis (reference value: […]); type: cell-based

O=C1CCC(N2Cc3c(C#CCCCNC(=O)c4ccc(NC(=O)[C@@H]5NC6(CCCCC6)[C@@]6(C(=O)Nc7cc(Cl)ccc76)[C@H]5c5cccc(Cl)c5F)cc4)cccc3C2=O)C(=O)N1 (some centres undefined)
IC50 (MOLM-14 [1]): 10.5 nM | Ratio IC50 (ML-2 [2]): >10 | fold change (FC) (RS4-11 [3]): >10 | Activity [4]: Non-Toxic | Activity [5]: Non-Toxic | Activity (RS4-11 [6]): Active | Activity (RS4-11 [7]): 50% | inhibition (MV4-11 [8]): Active | Activity [9]: Non-Toxic | inhibition (RS4-11 [10]): inactive | Activity (RS4-11 [11]): Active | Activity [12]: Non-Toxic | Ratio IC50 (MOLM-14 [13]): >10 | Activity [14]: Active | Activity (RS4-11 [15]): Dose-Dependent Effect | IC50 (RS4-11 [16]): 1.5 nM | IC50 (MOLM-13 [17]): 7.3 nM | Activity [18]: Non-Toxic | Ratio IC50 (RS4-11 [19]): >10 | Activity [20]: Non-Toxic | Activity (RS4-11 [21]): Active | Ratio IC50 (OCI-AML-5 [22]): >10 | Activity [23]: Active | IC50 (KG-1): > 10 µM | Activity [24]: Active | IC50 (ML-2 [25]): 4.4 nM | IC50 (OCI-AML-5 [26]): 33.1 nM | Ratio IC50 (SIG-M5 [27]): 5.3 | IC50 (SIG-M5 [28]): 19.8 nM | Activity [29]: Active | Ratio IC50 (MV4-11 [30]): >10 | Activity [31]: inactive | Activity [32]: Non-Toxic | IC50 (MONO-MAC-6): > 10 µM | Activity (RS4-11 [33]): Active | Activity [34]: Non-Toxic | Activity [35]: inactive | Ratio IC50 (MOLM-13 [36]): >10 | Activity (RS4-11 [37]): Active

NS(=O)(=O)OC[C@@H]1C[C@@H](n2ccc3c(N[C@H]4CCc5ccccc54)ncnc32)C[C@@H]1O
fold change (FC) [38]: 5.1 | fold change (FC) [39]: 2.4

O=C1CCC(N2C(=O)c3cccc(NCCOCCOCCNC(=O)c4ccc(NC(=O)[C@@H]5NC6(CCCCC6)[C@@]6(C(=O)Nc7cc(Cl)ccc76)[C@H]5c5cccc(Cl)c5F)cc4)c3C2=O)C(=O)N1 (some centres undefined)
Ratio IC50 (RS4-11 [40]): 10 | IC50 (RS4-11 [16]): 7 nM | Ratio IC50 (RS4-11 [19]): 10

CC(C)C[C@@H](C=O)NC(=O)[C@H](CC(C)C)NC(=O)[C@H](CC(C)C)NC(=O)OCc1ccccc1 (Cbz-Leu-Leu-Leu-aldehyde)
fold change (FC) [41]: 6.9 | fold change (FC) [42]: 2.9

O=C1CCC(N2C(=O)c3cccc(NCCCCNC(=O)c4ccc(NC(=O)[C@@H]5NC6(CCCCC6)[C@@]6(C(=O)Nc7cc(Cl)ccc76)[C@H]5c5cccc(Cl)c5F)cc4)c3C2=O)C(=O)N1 (some centres undefined)
Ratio IC50 (RS4-11 [40]): 10 | IC50 (RS4-11 [16]): 10 nM | Ratio IC50 (RS4-11 [19]): 10

From ChEMBL document CHEMBL5260839 (J Med Chem, 2019)
